ChEMBL document CHEMBL1909046, “DrugMatrix in vitro pharmacology data”

How the values were obtained:
[1] = target: Sodium-dependent noradrenaline transporter (Homo sapiens, UniProt P23975); experiment: DRUGMATRIX: Norepinephrine Transporter radioligand binding (ligand: [125I] RTI-55); type: cell membranes, MDCK, Membrane; details: mdck, Not Active = under 50% inhibition at 10 µM
Cytochrome P450 2A6 = target: T1, Cytochrome P450 2A6 (Homo sapiens, UniProt P11509); details: bti-tn-5b1-4; note: in other assays of this panel Not Active means under 50% inhibition at 10 µM
T1 sequence (P11509 whole entry): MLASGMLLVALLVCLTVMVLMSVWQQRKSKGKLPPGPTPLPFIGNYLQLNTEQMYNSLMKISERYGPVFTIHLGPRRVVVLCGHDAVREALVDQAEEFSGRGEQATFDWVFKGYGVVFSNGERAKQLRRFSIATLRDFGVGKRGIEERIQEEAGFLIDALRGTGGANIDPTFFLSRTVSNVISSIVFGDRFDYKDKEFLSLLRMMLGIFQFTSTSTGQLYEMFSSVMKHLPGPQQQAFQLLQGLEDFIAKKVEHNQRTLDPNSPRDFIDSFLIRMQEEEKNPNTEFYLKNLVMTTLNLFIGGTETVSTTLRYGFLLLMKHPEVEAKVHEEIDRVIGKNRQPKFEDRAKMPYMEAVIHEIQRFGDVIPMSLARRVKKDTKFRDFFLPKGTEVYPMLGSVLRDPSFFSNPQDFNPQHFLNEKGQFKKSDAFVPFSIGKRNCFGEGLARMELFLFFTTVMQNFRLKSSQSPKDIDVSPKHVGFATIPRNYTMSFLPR

Adenosine receptor A3 = target: T2, Adenosine receptor A3 (Homo sapiens, UniProt P0DMS8); type: cell membranes, CHO-K1, Membrane;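 note: radioligand binding assay with AB-MECA serving as the labeled ligand; in other assays of this panel Not Active means under 50% inhibition at 10 µM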
T2 sequence (P0DMS8 whole entry): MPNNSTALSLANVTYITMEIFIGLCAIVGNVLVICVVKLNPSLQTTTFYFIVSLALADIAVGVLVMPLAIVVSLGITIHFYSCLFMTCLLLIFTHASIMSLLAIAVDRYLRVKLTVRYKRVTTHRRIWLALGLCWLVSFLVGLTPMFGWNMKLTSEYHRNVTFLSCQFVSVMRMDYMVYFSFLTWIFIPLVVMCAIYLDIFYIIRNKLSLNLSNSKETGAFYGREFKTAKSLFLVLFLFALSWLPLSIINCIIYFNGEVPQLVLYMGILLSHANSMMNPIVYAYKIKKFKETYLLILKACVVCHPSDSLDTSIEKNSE

[2] = target: Matrix metalloproteinase-9 (Homo sapiens, UniProt P14780); experiment: biochemical; type: cell-based;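 note: inhibition of isolated MMP-9 enzyme activity toward a synthetic peptide substrate, from the DrugMatrix protease screening panel; in other assays of this panel Not Active means under 50% inhibition at 10 µM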
Sequence of Matrix metalloproteinase-9 (P14780 whole entry): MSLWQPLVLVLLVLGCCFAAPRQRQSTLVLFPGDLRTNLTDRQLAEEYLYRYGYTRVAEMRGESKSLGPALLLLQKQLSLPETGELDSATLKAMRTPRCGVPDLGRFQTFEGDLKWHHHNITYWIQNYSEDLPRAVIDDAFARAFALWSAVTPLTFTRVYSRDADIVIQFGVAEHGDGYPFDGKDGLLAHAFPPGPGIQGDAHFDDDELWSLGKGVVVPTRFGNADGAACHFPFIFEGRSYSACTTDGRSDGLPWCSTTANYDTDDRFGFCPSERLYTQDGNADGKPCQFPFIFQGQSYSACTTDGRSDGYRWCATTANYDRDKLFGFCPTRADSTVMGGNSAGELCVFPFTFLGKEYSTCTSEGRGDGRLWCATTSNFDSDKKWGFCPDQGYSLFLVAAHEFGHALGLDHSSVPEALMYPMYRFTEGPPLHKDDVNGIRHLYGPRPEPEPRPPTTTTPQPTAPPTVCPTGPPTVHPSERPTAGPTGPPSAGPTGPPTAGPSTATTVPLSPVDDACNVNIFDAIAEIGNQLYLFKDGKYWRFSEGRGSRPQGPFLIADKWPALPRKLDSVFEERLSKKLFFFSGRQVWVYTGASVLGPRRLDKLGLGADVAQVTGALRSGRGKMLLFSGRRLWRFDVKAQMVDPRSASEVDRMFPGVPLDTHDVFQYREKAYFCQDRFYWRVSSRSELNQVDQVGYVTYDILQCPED

[3] = DRUGMATRIX: Platelet-Derived Growth Factor (PDGF) radioligand binding (ligand: [125I] PDGF); type: cell-based; details: nih3t3; Not Active = under 50% inhibition at 10 µM
[4] = target: C-C chemokine receptor type 2 (Homo sapiens, UniProt P41597); type: cell membranes, CHO-K1, Membrane; details: cho-k1; note: in other assays of this panel Not Active means under 50% inhibition at 10 µM
Sequence of C-C chemokine receptor type 2 (P41597 whole entry): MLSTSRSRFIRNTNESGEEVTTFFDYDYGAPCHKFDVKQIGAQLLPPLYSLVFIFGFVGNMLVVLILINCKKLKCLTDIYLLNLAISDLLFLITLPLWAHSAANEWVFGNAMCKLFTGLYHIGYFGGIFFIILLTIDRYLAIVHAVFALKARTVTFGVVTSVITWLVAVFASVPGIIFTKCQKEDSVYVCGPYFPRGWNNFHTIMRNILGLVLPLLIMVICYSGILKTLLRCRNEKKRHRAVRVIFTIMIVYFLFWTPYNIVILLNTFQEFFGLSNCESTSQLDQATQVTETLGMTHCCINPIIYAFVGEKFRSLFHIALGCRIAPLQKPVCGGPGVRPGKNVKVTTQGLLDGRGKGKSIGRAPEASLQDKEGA

Sequence of Sodium-dependent noradrenaline transporter (P23975 whole entry): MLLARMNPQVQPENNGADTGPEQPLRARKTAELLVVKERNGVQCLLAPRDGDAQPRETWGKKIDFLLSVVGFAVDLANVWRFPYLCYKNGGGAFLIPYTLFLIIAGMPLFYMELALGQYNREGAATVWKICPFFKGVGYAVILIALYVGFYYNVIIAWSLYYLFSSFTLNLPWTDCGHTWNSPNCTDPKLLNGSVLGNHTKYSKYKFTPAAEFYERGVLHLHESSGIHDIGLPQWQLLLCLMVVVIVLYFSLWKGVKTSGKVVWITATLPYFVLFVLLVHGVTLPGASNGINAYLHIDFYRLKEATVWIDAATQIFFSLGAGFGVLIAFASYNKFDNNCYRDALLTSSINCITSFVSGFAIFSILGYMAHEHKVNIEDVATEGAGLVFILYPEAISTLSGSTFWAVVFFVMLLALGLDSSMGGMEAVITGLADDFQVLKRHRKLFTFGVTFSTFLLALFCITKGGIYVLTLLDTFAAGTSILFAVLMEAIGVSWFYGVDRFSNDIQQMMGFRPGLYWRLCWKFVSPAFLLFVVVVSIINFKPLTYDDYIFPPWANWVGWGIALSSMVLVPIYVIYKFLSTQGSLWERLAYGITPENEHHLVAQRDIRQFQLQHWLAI

NC[C@H]1O[C@H](O[C@H]2[C@H](O)[C@@H](O[C@H]3O[C@H](CO)[C@@H](O)[C@H](N)[C@H]3O)[C@H](N)C[C@@H]2N)[C@H](N)C[C@@H]1O [TOBRAMYCIN]
IC50 [1]: Not Active
IC50 (Cytochrome P450 2A6): Not Active
Ki (Cytochrome P450 2A6): Not Active
IC50 (Adenosine receptor A3; cho-k1): Not Active
IC50 [2]: Not Active
IC50 [3]: Not Active
Ki [3]: Not Active
IC50 [4]: Not Active

O=C(O)C(Cl)(Cl)Cl [TRICHLOROACETIC ACID]
IC50 [1]: Not Active
IC50 (Cytochrome P450 2A6): Not Active
Ki (Cytochrome P450 2A6): Not Active
IC50 (Adenosine receptor A3; cho-k1): Not Active
IC50 [2]: Not Active
IC50 [3]: Not Active
Ki [3]: Not Active
IC50 [4]: Not Active

CC(=O)O[C@H]1C[C@@H]2CC[C@@H]3[C@H](CC[C@@]4(C)[C@H]3C[C@H]([N+]3(C)CCCCC3)[C@@H]4OC(C)=O)[C@@]2(C)C[C@@H]1N1CCCCC1.[Br-] [VECURONIUM BROMIDE]
IC50 [1]: Not Active
IC50 (Cytochrome P450 2A6): Not Active
Ki (Cytochrome P450 2A6): Not Active
IC50 (Adenosine receptor A3; cho-k1): Not Active
IC50 [2]: Not Active
IC50 [3]: Not Active
Ki [3]: Not Active
IC50 [4]: Not Active

COc1cc(C(=O)NS(=O)(=O)c2ccccc2C)ccc1Cc1cn(C)c2ccc(NC(=O)OC3CCCC3)cc12 [ZAFIRLUKAST]
IC50 [1]: Not Active
IC50 (Cytochrome P450 2A6): Not Active
Ki (Cytochrome P450 2A6): Not Active
IC50 (Adenosine receptor A3; read-out: IC50): 1360 nM
Ki (Adenosine receptor A3; read-out: Ki): 770 nM
IC50 [2]: Not Active
IC50 [3]: Not Active
Ki [3]: Not Active
IC50 [4]: Not Active

Cc1cn([C@H]2C[C@H](N=[N+]=[N-])[C@@H](CO)O2)c(=O)[nH]c1=O [ZIDOVUDINE]
IC50 [1]: Not Active
IC50 (Cytochrome P450 2A6): Not Active
Ki (Cytochrome P450 2A6): Not Active
IC50 (Adenosine receptor A3; cho-k1): Not Active
IC50 [2]: Not Active
IC50 [3]: Not Active
Ki [3]: Not Active
IC50 [4]: Not Active

STANNOUS FLUORIDE
IC50 [1]: Not Active
Ki [1]: Not Active
IC50 (Cytochrome P450 2A6): Not Active
Ki (Cytochrome P450 2A6): Not Active
IC50 (Adenosine receptor A3; cho-k1): Not Active
Ki (Adenosine receptor A3; cho-k1): Not Active
IC50 [2]: Not Active
Ki [2]: Not Active
IC50 [3]: Not Active
Ki [3]: Not Active
IC50 [4]: Not Active
Ki [4]: Not Active

THIMEROSAL
IC50 ([1]; read-out: IC50): 931 nM
Ki ([1]; read-out: Ki): 923 nM
IC50 (Cytochrome P450 2A6): Not Active
Ki (Cytochrome P450 2A6): Not Active
Ki (Adenosine receptor A3; cho-k1, read-out: Ki): 1910 nM
IC50 [2]: Not Active
Ki [2]: Not Active
IC50 [3]: Not Active
Ki [3]: Not Active
IC50 [4]: Not Active
Ki [4]: Not Active
